Reference: US20120010179A1, “Methods of using a thiazole derivative” (priority 2006, published 2012)

System: patients with COPD
Experiment: Pulmonary function tests (spirometry FEV1, FVC), tetomilast with inhaled albuterol, crossover study (Example 1)
Type: in vivo, human
Details: for Estimated Treatment Effect, change from baseline in FEV1 (tetomilast versus placebo) / Estimated Treatment Effect, change from baseline in FVC (tetomilast versus placebo) / LS Mean change from baseline in FEV1 (repeated measures ANOVA) / LS Mean change from baseline in FVC (repeated measures ANOVA) / Mean (SD) change from baseline in FEV1 / Mean (SD) change from baseline in FVC: steady-state (predose) baseline, Day 8/23; for Estimated Treatment Effect, change from baseline in FEV1 (tetomilast versus placebo) / Estimated Treatment Effect, change from baseline in FVC (tetomilast versus placebo): both with inhaled albuterol; for LS Mean change from baseline in FEV1 (repeated measures ANOVA) / LS Mean change from baseline in FVC (repeated measures ANOVA) / Mean (SD) change from baseline in FEV1 / Mean (SD) change from baseline in FVC: tetomilast 50 mg QD + inhaled albuterol
Protocol: Pulmonary function tests were conducted throughout the study to monitor the subjects' respiratory status. Flow volume curves were collected via spirometry. Combivent® (Boehringer Ingleheim Pharmaceuticals, Inc., Ridgefield Conn.), which was used for short-acting rescues as needed throughout the studies described below, was withheld for 6 hours prior to any spirometric testing. Spirometry testing was performed at screening, baseline (Day 0), and at specific times during the treatment period. Each subject could have up to 5 spirometric readings at any study time point. Spirometric readings were performed using equipment from the central provider, Quantum Research, Inc. (Louisville, Colo.). All spirometry readings were recorded and sent to Quantum Research, Inc. for analysis
For the spirometric readings, the best effort was reported as follows. The highest acceptable forced expiratory volume in one second (FEV1) value was selected as the “best” of the given test session. If two or more FEV1 values were tied as highest, the sum of FEV1 and forced vital capacity (FVC) for those efforts was used. If both conditions were equal between the two efforts, the values reported were taken from the effort that occurred first, chronologically, based on date and time of the effort.
This study was a multicenter, randomized, double-blind, placebo-controlled, crossover, multiple dose, outpatient study in 27 patients with COPD. All subjects underwent a 28-day washout from inhaled corticosteroids and/or long-acting bronchodilators and/or continuous oxygen therapy (≧16 hours per day) and a 7-day washout from oral beta2-agonists and/or oral theophylline salts prior to baseline. Randomized subjects received an 8-day administration of oral placebo or tetomilast 50 mg oral dose (2×25 mg tablets) once daily (QD). On study Day 8, four consecutive doses of inhaled albuterol (90 μg albuterol base per puff) were given via a metered dose inhaler (MDI) and holding chamber (Ventolin®, GlaxoSmithKline, Research Triangle Park, N.C.), one dose every 30 minutes over the course of 90 minutes at doses of 90 μg+90 μg+180 μg+360 μg for a total dose of 720 μg (albuterol base) or 8 puffs.
Subjects entered a 7-day washout period (study days 9 through 15) and were then crossed over to the alternate treatment arm (placebo or tetomilast 50 mg oral dose). On study [0105] Day 23, the inhaled albuterol multiple dosing was repeated.
On Days 1-6 and 17-21, subjects were instructed to take their oral study medication (placebo or tetomilast 50 mg) QD with 8 ounces of water immediately before breakfast. Subjects assigned to the placebo arm received two placebo tablets QD. On Days 7, 8, 16, 22, and 23, subjects took their oral medication (placebo or tetomilast 50 mg) at the clinic in the presence of the study staff.
Combivent® inhalation aerosol use was allowed for short-acting rescue as needed throughout the study except on study days where PK samples were collected, on days when the multiple doses of inhaled albuterol were administered in the clinic, and/or on days when spirometry testing was performed. On all study days where PK samples were collected, Combivent® was withheld 6 hours prior to the PK draw. Additionally, on study Days 8 and 23 (when the multiple doses of inhaled albuterol were administered in the clinic), Combivent® was withheld 6 hours prior to PK assessment and throughout the duration of the clinic visit. Combivent® was withheld for six hours prior to spirometry testing. The recommended dose of Combivent® Inhalation Aerosol is two inhalations four times a day. In this study, subjects were permitted to take additional inhalations as required; however, the total number of inhalations was not to exceed 12 in 24 hours. Subjects were to “test-spray” three times before using for the first time and in cases where the aerosol had not been used for more than 24 hours. […]

CCOc1ccc(-c2nc(-c3cccc(C(=O)O)n3)cs2)cc1OCC [Tetomilast, 2-(3,4-diethoxyphenyl)-4-(2-carboxy-6-pyridyl)thiazole]
FVC steady-state (predose) baseline value, Mean (SD) (predose Day 8/23, on tetomilast 50 mg QD, prior to inhaled albuterol): 2.67 (0.88) L | FEV1 steady-state (predose) baseline value, Mean (predose Day 8/23, on tetomilast 50 mg QD, prior to inhaled albuterol, Table 3): 1.40 L | FVC steady-state (predose) baseline value, Mean (predose Day 8/23, on tetomilast 50 mg QD, prior to inhaled albuterol, Table 4): 2.67 L | Estimated Treatment Effect, change from baseline in FEV1 (tetomilast versus placebo) (5 min postdose): -0.01 L | Estimated Treatment Effect, change from baseline in FVC (tetomilast versus placebo) (5 min postdose): 0.01 L | LS Mean change from baseline in FEV1 (repeated measures ANOVA) (5 min postdose): 0.16 L | LS Mean change from baseline in FVC (repeated measures ANOVA) (5 min postdose): 0.30 L | Mean (SD) change from baseline in FEV1 (5 min postdose): 0.16 (0.09) L | Mean (SD) change from baseline in FVC (5 min postdose): 0.27 (0.25) L | Estimated Treatment Effect, change from baseline in FEV1 (tetomilast versus placebo) (25 min postdose): 0.03 L | Estimated Treatment Effect, change from baseline in FVC (tetomilast versus placebo) (25 min postdose): 0.03 L | LS Mean change from baseline in FEV1 (repeated measures ANOVA) (25 min postdose): 0.19 L | LS Mean change from baseline in FVC (repeated measures ANOVA) (25 min postdose): 0.29 L | Mean (SD) change from baseline in FEV1 (25 min postdose): 0.19 (0.16) L | Mean (SD) change from baseline in FVC (25 min postdose): 0.29 (0.37) L | Estimated Treatment Effect, change from baseline in FEV1 (tetomilast versus placebo) (35 min postdose): 0.03 L | Estimated Treatment Effect, change from baseline in FVC (tetomilast versus placebo) (35 min postdose): 0.01 L | LS Mean change from baseline in FEV1 (repeated measures ANOVA) (35 min postdose): 0.24 L | LS Mean change from baseline in FVC (repeated measures ANOVA) (35 min postdose): 0.39 L | Mean (SD) change from baseline in FEV1 (35 min postdose): 0.24 (0.18) L | Mean (SD) change from baseline in FVC (35 min postdose): 0.39 (0.36) L | Estimated Treatment Effect, change from baseline in FEV1 (tetomilast versus placebo) (55 min postdose): 0.05 L | Estimated Treatment Effect, change from baseline in FVC (tetomilast versus placebo) (55 min postdose): 0.07 L | LS Mean change from baseline in FEV1 (repeated measures ANOVA) (55 min postdose): 0.27 L | LS Mean change from baseline in FVC (repeated measures ANOVA) (55 min postdose): 0.37 L | Mean (SD) change from baseline in FEV1 (55 min postdose): 0.26 (0.20) L | Mean (SD) change from baseline in FVC (55 min postdose): 0.36 (0.37) L | Estimated Treatment Effect, change from baseline in FEV1 (tetomilast versus placebo) (65 min postdose): 0.06 L | Estimated Treatment Effect, change from baseline in FVC (tetomilast versus placebo) (65 min postdose): 0.13 L | LS Mean change from baseline in FEV1 (repeated measures ANOVA) (65 min postdose): 0.30 L | LS Mean change from baseline in FVC (repeated measures ANOVA) (65 min postdose): 0.50 L | Mean (SD) change from baseline in FEV1 (65 min postdose): 0.30 (0.20) L | Mean (SD) change from baseline in FVC (65 min postdose): 0.50 (0.40) L | Estimated Treatment Effect, change from baseline in FEV1 (tetomilast versus placebo) (85 min postdose): 0.05 L | Estimated Treatment Effect, change from baseline in FVC (tetomilast versus placebo) (85 min postdose): 0.05 L | LS Mean change from baseline in FEV1 (repeated measures ANOVA) (85 min postdose): 0.31 L | LS Mean change from baseline in FVC (repeated measures ANOVA) (85 min postdose): 0.45 L | Mean (SD) change from baseline in FEV1 (85 min postdose): 0.31 (0.20) L | Mean (SD) change from baseline in FVC (85 min postdose): 0.45 (0.39) L | Estimated Treatment Effect, change from baseline in FEV1 (tetomilast versus placebo) (95 min postdose): 0.05 L | Estimated Treatment Effect, change from baseline in FVC (tetomilast versus placebo) (95 min postdose): 0.12 L | LS Mean change from baseline in FEV1 (repeated measures ANOVA) (95 min postdose): 0.34 L | LS Mean change from baseline in FVC (repeated measures ANOVA) (95 min postdose): 0.53 L | Mean (SD) change from baseline in FEV1 (95 min postdose): 0.34 (0.21) L | Mean (SD) change from baseline in FVC (95 min postdose): 0.53 (0.42) L | Estimated Treatment Effect, change from baseline in FEV1 (tetomilast versus placebo) (115 min postdose): 0.05 L | Estimated Treatment Effect, change from baseline in FVC (tetomilast versus placebo) (115 min postdose): 0.11 L | LS Mean change from baseline in FEV1 (repeated measures ANOVA) (115 min postdose): 0.33 L | LS Mean change from baseline in FVC (repeated measures ANOVA) (115 min postdose): 0.51 L | Mean (SD) change from baseline in FEV1 (115 min postdose): 0.33 (0.20) L | Mean (SD) change from baseline in FVC (115 min postdose): 0.51 (0.48) L | Estimated Treatment Effect, change from baseline in FEV1 (tetomilast versus placebo) (175 min postdose): 0.06 L | Estimated Treatment Effect, change from baseline in FVC (tetomilast versus placebo) (175 min postdose): 0.07 L | LS Mean change from baseline in FEV1 (repeated measures ANOVA) (175 min postdose): 0.34 L | LS Mean change from baseline in FVC (repeated measures ANOVA) (175 min postdose): 0.50 L | Mean (SD) change from baseline in FEV1 (175 min postdose): 0.34 (0.21) L | Mean (SD) change from baseline in FVC (175 min postdose): 0.50 (0.38) L | Estimated Treatment Effect, change from baseline in FEV1 (tetomilast versus placebo) (235 min postdose): 0.04 L | Estimated Treatment Effect, change from baseline in FVC (tetomilast versus placebo) (235 min postdose): 0.01 L | LS Mean change from baseline in FEV1 (repeated measures ANOVA) (235 min postdose): 0.32 L | LS Mean change from baseline in FVC (repeated measures ANOVA) (235 min postdose): 0.39 L | Mean (SD) change from baseline in FEV1 (235 min postdose): 0.32 (0.25) L | Mean (SD) change from baseline in FVC (235 min postdose): 0.40 (0.50) L | Estimated Treatment Effect, change from baseline in FEV1 (tetomilast versus placebo) (295 min postdose): 0.03 L | Estimated Treatment Effect, change from baseline in FVC (tetomilast versus placebo) (295 min postdose): 0.11 L | LS Mean change from baseline in FEV1 (repeated measures ANOVA) (295 min postdose): 0.23 L | LS Mean change from baseline in FVC (repeated measures ANOVA) (295 min postdose): 0.35 L | Mean (SD) change from baseline in FEV1 (295 min postdose): 0.23 (0.26) L | Mean (SD) change from baseline in FVC (295 min postdose): 0.35 (0.50) L | Estimated Treatment Effect, change from baseline in FEV1 (tetomilast versus placebo) (355 min postdose): 0.11 L | Estimated Treatment Effect, change from baseline in FVC (tetomilast versus placebo) (355 min postdose): 0.17 L | LS Mean change from baseline in FEV1 (repeated measures ANOVA) (355 min postdose): 0.23 L | LS Mean change from baseline in FVC (repeated measures ANOVA) (355 min postdose): 0.32 L | Mean (SD) change from baseline in FEV1 (355 min postdose): 0.23 (0.22) L | Mean (SD) change from baseline in FVC (355 min postdose): 0.32 (0.43) L
